Source: article PMC3566133, “Molecular Analysis of the Prostacyclin Receptor’s Interaction with the PDZ1 Domain of Its Adaptor Protein PDZK1” (PLoS ONE, 2013)
Where a SMILES comes first, the peptide text is derived from it.

Experiments:
[1] = molecular target: T1, PDZ1 domain of PDZK1 (Mus musculus, UniProt Q9JIL4); test: Isothermal titration calorimetry (ITC), binding to recombinant PDZ1 domain of PDZK1; conditions: VP-ITC microcalorimeter, 1.0 mM peptide titrated into 0.03 mM PDZ1, 150 mM NaCl, 25 mM Tris-pH 8.0, 0.5 mM TCEP, 20°C, triplicate, ORIGIN 7.0, read-out: Kd (binding affinity) to PDZ1
T1 construct: Recombinant wild-type PDZ1 domain (0.03 mM in 150 mM NaCl); made in house
T1 sequence (Q9JIL4 9-90 limits assumed): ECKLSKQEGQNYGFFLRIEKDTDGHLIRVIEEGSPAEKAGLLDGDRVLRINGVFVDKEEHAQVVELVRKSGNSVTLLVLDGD
Procedure: Expression and purification of recombinant proteins corresponding to PDZ1 domain 1(PDZ1) of PDZK1 and to full length PDZK1 has been described previously. Binding of synthetic peptides based on the C-terminus of the IP (Fig. 1) was measured using a VP-ITC microcalorimeter (GE Healthcare). Three individual peptides were used: Peptide 1 corresponded to the seven carboxy-terminal amino acids of mouse (m) IP, to which two N-terminal lysines (not part of the IP protein sequence) were added to increase peptide solubility (KK^411IAACSLC^417, ‘target peptide’); Peptide 2 consisted of an octapeptide corresponding to the carboxy-terminus of IP (K^407SEAIAAC^414) devoid of the 3 terminal amino acids (-aaX/-^415SLC^417) which would be removed by proteolytic cleavage following farnesylation. […] Titration curves were analyzed and Kd values determined using ORIGIN 7.0 software (Origin Lab) with baseline correction. […]
Figure 2 Isothermal titration calorimetric analysis of the binding of a C-terminal peptide from IP to the PDZ1 domain of PDZK1. […] Titration curves were analyzed and Kd values determined using ORIGIN 7.0 software. […]

[2] = molecular target: PDZ1 of PDZK1; conditions: cited from earlier work
Source text: PDZK1 is a multi-PDZ domain-containing adaptor protein known to play a role in the expression, localization and function of several cell surface receptors and ion channels. One of its molecular interactants is the prostacyclin receptor (IP), whose interaction with PDZK1 was recently described. […] These interactions involve a Class I type of binding typically seen for protein interactants with carbox ... || We recently solved the structures of the interactions between the HDL receptor SR-BI with the first and with the third PDZ domains of PDZK1 by X-ray crystallography, [32]. […] The crystal structure described herein, analyzing the interaction between the carboxy-terminus of the I ...

[3] = test system: third PDZ domain (PDZ3) of PDZK1; conditions: cited from earlier work
Source text: We recently solved the structures of the interactions between the HDL receptor SR-BI with the first and with the third PDZ domains of PDZK1 by X-ray crystallography, [32]. […] The crystal structure described herein, analyzing the interaction between the carboxy-terminus of the I ...

[4] = molecular target: the molecule itself; test: crystal structure; PDZ1-IP chimera at 1 mM, sitting drop vapor diffusion, 18°C, 0.1 M MES pH 6.5, 30% (w/v) PEG 300; 1.70 Å; the IP peptide of one molecule binds the PDZ1 of the adjacent molecule
[5] = molecular target: T2, recombinant full-length PDZK1 (mouse, UniProt Q9JIL4 1-519); test: ITC; 1.0 mM peptide injected in 10 µl aliquots into 0.03 mM PDZ1 or full length PDZK1 in the cell; 150 mM NaCl, 25 mM Tris pH 8.0, 0.5 mM TCEP, 20°C; VP-ITC; conditions: both partners purified
T2 construct: PDZK1, full length, with PDZ1-PDZ4; source: recombinant, purified
T2 sequence (looked up): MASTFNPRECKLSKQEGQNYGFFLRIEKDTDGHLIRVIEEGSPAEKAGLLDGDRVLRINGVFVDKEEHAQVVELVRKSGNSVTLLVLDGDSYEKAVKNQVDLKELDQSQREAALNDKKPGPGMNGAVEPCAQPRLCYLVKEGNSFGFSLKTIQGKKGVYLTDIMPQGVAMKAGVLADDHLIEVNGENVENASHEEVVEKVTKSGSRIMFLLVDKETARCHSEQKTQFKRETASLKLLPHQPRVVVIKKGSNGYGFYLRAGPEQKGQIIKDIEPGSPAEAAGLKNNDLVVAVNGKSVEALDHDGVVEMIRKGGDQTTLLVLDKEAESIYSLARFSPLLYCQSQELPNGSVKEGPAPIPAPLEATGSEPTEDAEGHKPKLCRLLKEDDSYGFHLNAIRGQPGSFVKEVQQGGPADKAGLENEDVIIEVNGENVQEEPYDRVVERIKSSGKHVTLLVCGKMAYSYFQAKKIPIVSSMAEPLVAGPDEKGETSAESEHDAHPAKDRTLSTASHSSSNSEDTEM

[6] = molecular target: T3, recombinant protein corresponding to PDZ domain 1 (PDZ1) of PDZK1 (mouse); test: as above
T3 sequence (Q9JIL4 whole entry, looked up): T2 sequence (looked up)

[7] = molecular target: T4, PDZK1 residues 7-106 (PDZ1 domain 7-86 with interdomain residues 87-106), the PDZK1 portion of the PDZ1-IP … (mouse, UniProt Q9JIL4 7-106); test: crystal structure; PDZ1-IP chimera at 1 mM, sitting drop vapor diffusion, 18°C, 0.1 M MES pH 6.5, 30% (w/v) PEG 300; 1.70 Å; the IP peptide of one molecule binds the PDZ1 of the adjacent molecule; conditions: both partners purified
T4 construct: PDZK1 residues 7-106: PDZ1 (7-86) and interdomain residues 87-106; numbering of the intact murine PDZK1; Stood in the crystal joined on one chain with m8 (the chimera m6, with Gly-Ser at its N-terminus); written apart for the pair PDZ1 with the IP peptide; also called PDZ1 portion of the structure; source: E. coli JM109, purified, as part of the PDZ1-IP chimera; not shown: GST, N-terminal, cleaved
T4 sequence (looked up): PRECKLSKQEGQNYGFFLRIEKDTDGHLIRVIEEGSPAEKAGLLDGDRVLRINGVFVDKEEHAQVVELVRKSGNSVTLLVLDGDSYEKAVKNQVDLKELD

CC[C@H](C)[C@H](NC(=O)[C@H](CCCCN)NC(=O)[C@@H](N)CCCCN)C(=O)N[C@@H](C)C(=O)N[C@@H](C)C(=O)N[C@@H](CS)C(=O)N[C@@H](CO)C(=O)N[C@@H](CC(C)C)C(=O)N[C@@H](CS)C(=O)O [Peptide 1] (H-KKIAACSLC-OH)
Kd [1]: 8.2 µM

-VLQEAKL [SR-BI, scavenger receptor class B, type I]
Kd ([2]; PDZ1 of PDZK1, read-out: Kd of SR-BI binding to PDZ1): 2.6 µM | Affinity of SR-BI/PDZ1 interaction [2]: high affinity | Affinity of SR-BI/PDZ3 interaction [3]: lower affinity

B1: chimeric PDZ1-IP recombinant protein (residues 7-106 of PDZK1 fused to the seven carboxy-terminal amino acids of mouse IP) (other)
chain: GSPRECKLSKQEGQNYGFFLRIEKDTDGHLIRVIEEGSPAEKAGLLDGDRVLRINGVFVDKEEHAQVVELVRKSGNSVTLLVLDGDSYEKAVKNQVDLKELDIAACSLC
notes: Gly-Ser dipeptide from the cloning vector (pGEX-4T-3), left at the N-terminus after thrombin digestion; PDZK1 residues 7-106: PDZ1 (7-86) and interdomain residues 87-106; numbering of the intact murine PDZK1; prostacyclin receptor (IP), mouse, seven carboxy-terminal residues 411-417; In the structure the chain is numbered 7Pro to 113Cys; also called PDZ1-IP chimera; PDZ1-IP target peptide …
binding result [4]: binds

B2: Peptide 1 (KK411IAACSLC417), seven carboxy-terminal amino acids of mouse IP with two added N-terminal lysines (peptide)
peptide: KKIAACSLC
notes: prostacyclin receptor (IP), mouse, seven carboxy-terminal residues 411-417; also called target peptide; C-terminal nonapeptide from IP; source: synthetic peptide, HPLC purified (Tufts University Core Facility)
Kd [5]: 60.2 ± 14.2 µM | Kd [6]: 8.2 µM

B3: seven carboxy-terminal residues of mouse IP (411IAACSLC417), the IP portion of the PDZ1-IP chimera (peptide)
peptide: IAACSLC
notes: prostacyclin receptor (IP), mouse, seven carboxy-terminal residues 411-417; also numbered -6 to 0 from the C-terminal residue; Stood in the crystal fused to the C-terminus of m7 (the chimera m6); also called IP target peptide; IP peptide; source: E. coli JM109, purified, as part of the PDZ1-IP chimera
binding result [7]: binds
